In paper PMC11345841, “Exploring 2-Sulfonylpyrimidine Warheads as Acrylamide Surrogates for Targeted Covalent Inhibition: A BTK Story” (Journal of Medicinal Chemistry, 2024):
Where two headings read alike, the source gives them in different places. Blank lines part the entries; values can stand above or below the compound they belong to.

Columns and labels:
Test in all cases: KINOMEscan ScanTK
Assay type in all cases: binding
EPHA1 = target: T1, EPHA1 (Homo sapiens, UniProt P21709)
T1 construct: purchased Eurofins DiscoverX KINOMEscan (scanTK)
T1 sequence (P21709 26-976): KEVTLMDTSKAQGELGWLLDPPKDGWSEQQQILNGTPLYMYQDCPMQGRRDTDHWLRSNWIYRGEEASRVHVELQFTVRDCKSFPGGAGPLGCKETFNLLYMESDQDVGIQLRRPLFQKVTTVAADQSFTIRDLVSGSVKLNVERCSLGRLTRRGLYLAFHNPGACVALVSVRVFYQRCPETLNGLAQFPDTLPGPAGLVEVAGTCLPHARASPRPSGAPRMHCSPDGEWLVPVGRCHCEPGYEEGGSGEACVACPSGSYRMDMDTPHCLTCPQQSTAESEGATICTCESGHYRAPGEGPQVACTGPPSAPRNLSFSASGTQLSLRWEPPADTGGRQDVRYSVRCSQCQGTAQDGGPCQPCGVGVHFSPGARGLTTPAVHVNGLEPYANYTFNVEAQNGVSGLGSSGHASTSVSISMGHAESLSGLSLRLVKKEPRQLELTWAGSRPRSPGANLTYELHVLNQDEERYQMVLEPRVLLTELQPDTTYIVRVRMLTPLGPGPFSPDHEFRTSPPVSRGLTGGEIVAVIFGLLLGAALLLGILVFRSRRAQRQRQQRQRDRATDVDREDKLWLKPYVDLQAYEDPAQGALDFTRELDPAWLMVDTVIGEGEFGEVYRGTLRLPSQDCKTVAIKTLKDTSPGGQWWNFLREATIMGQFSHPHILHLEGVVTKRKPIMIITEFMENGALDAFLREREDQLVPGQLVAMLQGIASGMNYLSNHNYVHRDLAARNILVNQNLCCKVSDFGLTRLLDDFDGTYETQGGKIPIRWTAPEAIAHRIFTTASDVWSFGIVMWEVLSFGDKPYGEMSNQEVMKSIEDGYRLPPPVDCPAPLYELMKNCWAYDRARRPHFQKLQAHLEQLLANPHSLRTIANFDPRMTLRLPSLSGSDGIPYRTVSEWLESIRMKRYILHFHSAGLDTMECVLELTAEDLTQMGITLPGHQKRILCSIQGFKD

[1] = target: T2, ABL1(F317I)-phosphorylated (Homo sapiens, UniProt P00519, F317I)
T2 construct: purchased Eurofins DiscoverX KINOMEscan (scanTK)

PDGFRB = target: T3, PDGFRB (Homo sapiens, UniProt P09619)
T3 construct: purchased Eurofins DiscoverX KINOMEscan (scanTK)

LTK = target: T4, LTK (Homo sapiens, UniProt P29376)
T4 construct: purchased Eurofins DiscoverX KINOMEscan (scanTK)

EGFR(G719C) = target: T5, EGFR(G719C) (Homo sapiens, UniProt P00533, G719C)
T5 construct: purchased Eurofins DiscoverX KINOMEscan (scanTK)

ERBB2 = target: T6, ERBB2 (Homo sapiens, UniProt P04626); settings: ERBB2
T6 construct: purchased Eurofins DiscoverX KINOMEscan (scanTK)

EPHA2 = target: T7, EPHA2 (Homo sapiens, UniProt P29317)
T7 construct: purchased Eurofins DiscoverX KINOMEscan (scanTK)

[2] = target: T8, ABL1(Q252H)-nonphosphorylated (Homo sapiens, UniProt P00519, Q252H)
T8 construct: purchased Eurofins DiscoverX KINOMEscan (scanTK)

FRK = target: T9, FRK (Homo sapiens, UniProt P42685)
T9 construct: purchased Eurofins DiscoverX KINOMEscan (scanTK)

EGFR(L747-T751del,Sins) = settings: for % difference (compound - Ib %Control) / %Control: @1000nM
INSRR = target: T10, INSRR (Homo sapiens, UniProt P14616)
T10 construct: purchased Eurofins DiscoverX KINOMEscan (scanTK)

EGFR(S752-I759del) = target: T11, EGFR(S752-I759del) (Homo sapiens, UniProt P00533, DEL752-759)
T11 construct: purchased Eurofins DiscoverX KINOMEscan (scanTK)

FES = target: T12, FES (Homo sapiens, UniProt P07332)
T12 construct: purchased Eurofins DiscoverX KINOMEscan (scanTK)

EGFR(G719S) = target: T13, EGFR(G719S) (Homo sapiens, UniProt P00533, G719S)
T13 construct: purchased Eurofins DiscoverX KINOMEscan (scanTK)

[3] = target: T14, TYK2(JH2domain-pseudokinase) (Homo sapiens, UniProt P29597); settings: for difference in %Control versus Ib at 1 µM: read-out: % difference (compound - Ib %Control)
T14 construct: TYK2(JH2domain-pseudokinase); purchased Eurofins DiscoverX KINOMEscan (scanTK)
T14 sequence (P29597 575-869 limits assumed): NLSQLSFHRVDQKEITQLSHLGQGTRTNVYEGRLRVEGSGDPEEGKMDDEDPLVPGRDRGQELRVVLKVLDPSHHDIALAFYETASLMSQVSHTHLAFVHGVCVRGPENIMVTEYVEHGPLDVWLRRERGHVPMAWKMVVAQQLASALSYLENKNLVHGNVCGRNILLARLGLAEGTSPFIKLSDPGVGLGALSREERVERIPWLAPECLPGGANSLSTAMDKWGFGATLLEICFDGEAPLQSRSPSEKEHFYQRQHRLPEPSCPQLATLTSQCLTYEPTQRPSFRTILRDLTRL

T12 sequence (P07332 whole entry): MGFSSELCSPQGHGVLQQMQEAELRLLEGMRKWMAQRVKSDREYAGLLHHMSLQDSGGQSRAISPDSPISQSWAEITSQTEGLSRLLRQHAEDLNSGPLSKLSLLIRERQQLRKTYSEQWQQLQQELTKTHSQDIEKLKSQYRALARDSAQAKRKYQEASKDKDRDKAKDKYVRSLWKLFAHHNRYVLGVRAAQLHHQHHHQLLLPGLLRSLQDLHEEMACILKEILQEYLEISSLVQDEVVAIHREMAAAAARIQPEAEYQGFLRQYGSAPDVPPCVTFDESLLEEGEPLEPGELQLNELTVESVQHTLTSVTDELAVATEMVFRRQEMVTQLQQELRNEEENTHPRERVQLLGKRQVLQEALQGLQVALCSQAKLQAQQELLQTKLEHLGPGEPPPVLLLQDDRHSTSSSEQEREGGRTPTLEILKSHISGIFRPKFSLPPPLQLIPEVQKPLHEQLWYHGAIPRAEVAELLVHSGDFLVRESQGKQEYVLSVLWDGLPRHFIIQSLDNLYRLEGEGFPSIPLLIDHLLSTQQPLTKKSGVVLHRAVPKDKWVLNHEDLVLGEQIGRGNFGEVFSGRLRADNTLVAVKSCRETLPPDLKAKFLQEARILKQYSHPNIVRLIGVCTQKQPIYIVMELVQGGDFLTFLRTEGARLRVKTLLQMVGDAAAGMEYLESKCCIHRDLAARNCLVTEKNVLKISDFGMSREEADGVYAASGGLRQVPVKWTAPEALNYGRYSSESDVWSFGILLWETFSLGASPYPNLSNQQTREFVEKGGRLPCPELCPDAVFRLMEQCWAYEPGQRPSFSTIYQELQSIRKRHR
T5 sequence (P00533 25-1210 G719C): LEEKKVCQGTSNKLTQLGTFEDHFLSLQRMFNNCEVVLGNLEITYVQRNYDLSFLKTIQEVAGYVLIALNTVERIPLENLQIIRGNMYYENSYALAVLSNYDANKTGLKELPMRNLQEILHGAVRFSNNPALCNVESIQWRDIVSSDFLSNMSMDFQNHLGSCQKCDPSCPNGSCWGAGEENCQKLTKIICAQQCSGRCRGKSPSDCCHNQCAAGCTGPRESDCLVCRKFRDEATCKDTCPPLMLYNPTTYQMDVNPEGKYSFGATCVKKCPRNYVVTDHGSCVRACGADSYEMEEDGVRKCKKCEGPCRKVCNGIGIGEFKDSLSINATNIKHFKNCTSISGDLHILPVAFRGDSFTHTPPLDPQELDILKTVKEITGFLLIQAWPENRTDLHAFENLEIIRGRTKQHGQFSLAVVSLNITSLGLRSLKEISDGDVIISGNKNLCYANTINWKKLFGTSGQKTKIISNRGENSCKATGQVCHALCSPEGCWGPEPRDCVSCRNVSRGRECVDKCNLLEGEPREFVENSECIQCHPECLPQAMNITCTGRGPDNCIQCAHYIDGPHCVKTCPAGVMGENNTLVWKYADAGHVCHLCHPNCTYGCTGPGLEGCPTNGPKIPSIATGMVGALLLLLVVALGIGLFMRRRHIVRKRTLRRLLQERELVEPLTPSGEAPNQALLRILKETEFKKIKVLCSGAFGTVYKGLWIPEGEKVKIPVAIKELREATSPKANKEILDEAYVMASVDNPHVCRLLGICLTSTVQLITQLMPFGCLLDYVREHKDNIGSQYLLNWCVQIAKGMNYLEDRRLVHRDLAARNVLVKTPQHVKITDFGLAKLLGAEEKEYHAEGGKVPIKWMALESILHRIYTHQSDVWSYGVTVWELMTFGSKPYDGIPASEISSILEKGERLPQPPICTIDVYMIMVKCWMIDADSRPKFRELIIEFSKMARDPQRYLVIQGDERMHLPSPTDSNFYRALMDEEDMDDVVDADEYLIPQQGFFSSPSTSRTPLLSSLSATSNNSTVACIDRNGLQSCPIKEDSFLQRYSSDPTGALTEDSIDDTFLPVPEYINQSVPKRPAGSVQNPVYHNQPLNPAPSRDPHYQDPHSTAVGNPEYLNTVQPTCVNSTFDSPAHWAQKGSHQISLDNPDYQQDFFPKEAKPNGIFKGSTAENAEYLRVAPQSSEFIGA
T9 sequence (P42685 whole entry): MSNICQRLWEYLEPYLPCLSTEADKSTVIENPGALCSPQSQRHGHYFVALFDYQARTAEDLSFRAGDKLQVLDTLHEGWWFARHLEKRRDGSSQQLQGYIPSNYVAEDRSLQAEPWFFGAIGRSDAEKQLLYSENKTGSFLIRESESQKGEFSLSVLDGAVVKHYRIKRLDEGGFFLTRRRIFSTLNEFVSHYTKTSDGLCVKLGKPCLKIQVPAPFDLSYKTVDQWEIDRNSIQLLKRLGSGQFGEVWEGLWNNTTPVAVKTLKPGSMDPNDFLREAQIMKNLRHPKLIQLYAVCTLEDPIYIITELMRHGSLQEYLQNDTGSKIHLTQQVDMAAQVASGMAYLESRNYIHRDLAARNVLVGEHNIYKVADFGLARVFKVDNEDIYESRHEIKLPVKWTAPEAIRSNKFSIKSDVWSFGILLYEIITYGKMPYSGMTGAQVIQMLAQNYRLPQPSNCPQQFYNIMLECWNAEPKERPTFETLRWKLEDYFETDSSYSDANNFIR
T3 sequence (P09619 33-1106): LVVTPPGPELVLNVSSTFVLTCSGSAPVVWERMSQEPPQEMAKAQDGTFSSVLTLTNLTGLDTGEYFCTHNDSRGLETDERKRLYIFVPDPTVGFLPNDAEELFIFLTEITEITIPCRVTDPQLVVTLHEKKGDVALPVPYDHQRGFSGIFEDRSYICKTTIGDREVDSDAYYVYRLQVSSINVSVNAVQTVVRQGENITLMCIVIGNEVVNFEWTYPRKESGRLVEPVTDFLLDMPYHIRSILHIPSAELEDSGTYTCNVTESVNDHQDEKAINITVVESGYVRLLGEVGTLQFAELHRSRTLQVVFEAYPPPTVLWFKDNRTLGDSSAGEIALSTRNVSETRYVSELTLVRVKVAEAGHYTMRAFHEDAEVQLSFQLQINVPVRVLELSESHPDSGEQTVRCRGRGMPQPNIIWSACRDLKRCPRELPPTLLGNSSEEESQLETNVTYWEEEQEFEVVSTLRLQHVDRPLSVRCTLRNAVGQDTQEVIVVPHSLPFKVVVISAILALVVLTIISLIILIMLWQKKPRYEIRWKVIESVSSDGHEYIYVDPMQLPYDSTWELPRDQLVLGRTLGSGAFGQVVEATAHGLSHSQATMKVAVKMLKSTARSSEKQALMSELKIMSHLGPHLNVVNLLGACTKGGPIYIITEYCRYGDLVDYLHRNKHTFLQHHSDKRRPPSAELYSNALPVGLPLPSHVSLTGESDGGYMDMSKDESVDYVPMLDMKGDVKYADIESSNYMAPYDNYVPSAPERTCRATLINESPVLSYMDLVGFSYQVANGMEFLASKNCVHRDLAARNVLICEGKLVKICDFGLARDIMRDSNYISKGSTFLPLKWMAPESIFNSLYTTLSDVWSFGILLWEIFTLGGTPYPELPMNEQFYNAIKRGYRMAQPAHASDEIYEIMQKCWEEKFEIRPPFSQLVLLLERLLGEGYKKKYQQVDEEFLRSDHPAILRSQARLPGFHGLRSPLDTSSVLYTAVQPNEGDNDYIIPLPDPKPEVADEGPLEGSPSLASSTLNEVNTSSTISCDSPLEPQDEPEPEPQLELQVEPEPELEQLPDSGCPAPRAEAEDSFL
T11 sequence (P00533 with tags, fused parts or gaps DEL752-759 limits assumed): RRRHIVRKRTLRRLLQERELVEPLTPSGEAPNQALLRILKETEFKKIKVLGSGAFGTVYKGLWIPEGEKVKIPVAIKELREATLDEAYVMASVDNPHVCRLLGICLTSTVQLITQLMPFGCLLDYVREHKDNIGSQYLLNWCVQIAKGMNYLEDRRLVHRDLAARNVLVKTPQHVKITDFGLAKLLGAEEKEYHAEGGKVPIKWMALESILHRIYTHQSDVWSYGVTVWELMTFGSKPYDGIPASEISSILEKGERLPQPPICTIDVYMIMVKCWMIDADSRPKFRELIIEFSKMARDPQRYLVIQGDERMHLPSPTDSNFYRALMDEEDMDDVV
T4 sequence (P29376 17-864): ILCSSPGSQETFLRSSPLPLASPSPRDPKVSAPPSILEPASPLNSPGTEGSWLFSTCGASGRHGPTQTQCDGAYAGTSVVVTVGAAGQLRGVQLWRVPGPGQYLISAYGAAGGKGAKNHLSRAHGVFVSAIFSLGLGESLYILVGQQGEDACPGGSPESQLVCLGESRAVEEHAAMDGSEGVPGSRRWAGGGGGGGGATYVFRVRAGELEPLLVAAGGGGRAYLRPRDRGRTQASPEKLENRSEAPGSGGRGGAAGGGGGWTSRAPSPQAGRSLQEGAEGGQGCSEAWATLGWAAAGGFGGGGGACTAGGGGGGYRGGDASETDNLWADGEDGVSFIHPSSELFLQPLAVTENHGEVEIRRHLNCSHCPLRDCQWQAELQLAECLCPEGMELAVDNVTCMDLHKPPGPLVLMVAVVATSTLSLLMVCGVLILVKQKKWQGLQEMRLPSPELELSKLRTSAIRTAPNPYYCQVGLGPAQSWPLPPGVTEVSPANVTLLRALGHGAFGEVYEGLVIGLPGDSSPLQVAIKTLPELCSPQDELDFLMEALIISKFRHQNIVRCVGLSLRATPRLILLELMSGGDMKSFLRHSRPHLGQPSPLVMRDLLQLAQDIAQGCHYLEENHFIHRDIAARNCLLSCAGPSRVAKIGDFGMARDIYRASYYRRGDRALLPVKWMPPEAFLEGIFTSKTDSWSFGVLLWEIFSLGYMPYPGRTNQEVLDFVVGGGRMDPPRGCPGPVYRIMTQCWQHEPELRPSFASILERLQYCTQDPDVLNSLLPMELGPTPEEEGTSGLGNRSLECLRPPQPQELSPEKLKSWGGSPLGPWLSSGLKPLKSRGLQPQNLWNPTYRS

- difference in %Control versus compound Ib at 1 µM (EPHA1; @1000nM): 20%
- remaining binding at 1 µM (EPHA1; @1000nM, read-out: %Control): 92%
- remaining binding at 1 µM (EPHA1; read-out: %Control @1000nM): 92%
- difference in %Control from reference compound Ib at 1 µM ([1]; @1000nM): 15%
- remaining binding at 1 µM ([1]; @1000nM, read-out: %Control): 88%
- remaining binding at 1 µM ([1]; read-out: %Control @1000nM): 88%
- remaining binding at 1 µM (PDGFRB; @1000nM, read-out: %Control): 87%
- remaining binding at 1 µM (PDGFRB; read-out: %Control @1000nM): 87%
- remaining binding at 1 µM (LTK; @1000nM, read-out: %Control): 100%
- remaining binding at 1 µM (LTK; read-out: %Control @1000nM): 100%
- difference in %Control vs compound Ib at 1 µM (EGFR(G719C); @1000nM): 6.4%
- remaining binding at 1 µM (EGFR(G719C); @1000nM, read-out: %Control): 7.5%
- remaining binding at 1 µM (EGFR(G719C); read-out: %Control @1000nM): 7.5%
- difference in %Control versus compound Ib at 1 µM (ERBB2; @1000nM): 48%
- remaining binding at 1 µM (ERBB2; @1000nM, read-out: %Control): 48%
- remaining binding at 1 µM (ERBB2; read-out: %Control @1000nM): 48%
- difference in %Control versus compound Ib at 1 µM (EPHA2; @1000nM): -2%
- remaining binding at 1 µM (EPHA2; @1000nM, read-out: %Control): 98%
- remaining binding at 1 µM (EPHA2; read-out: %Control @1000nM): 98%
- difference in %Control versus reference compound Ib at 1 µM ([2]; @1000nM): 23%
- remaining binding at 1 µM ([2]; @1000nM, read-out: %Control): 36%
- remaining binding at 1 µM ([2]; read-out: %Control @1000nM): 36%
- difference in %Control versus compound Ib at 1 µM (FRK; @1000nM): 66.7%
- remaining binding at 1 µM (FRK; @1000nM, read-out: %Control): 76%
- remaining binding at 1 µM (FRK; read-out: %Control @1000nM): 76%
- difference in %Control versus compound Ib at 1 µM (INSRR; @1000nM): -9%
- remaining binding at 1 µM (INSRR; @1000nM, read-out: %Control): 87%
- remaining binding at 1 µM (INSRR; read-out: %Control @1000nM): 87%
- difference in %Control versus compound Ib at 1 µM (EGFR(S752-I759del); @1000nM): 98%
- remaining binding at 1 µM (EGFR(S752-I759del); @1000nM, read-out: %Control): 100%
- remaining binding at 1 µM (EGFR(S752-I759del); read-out: %Control @1000nM): 100%
- difference in %Control versus compound Ib at 1 µM (FES; @1000nM): -4%
- remaining binding at 1 µM (FES; @1000nM, read-out: %Control): 96%
- remaining binding at 1 µM (FES; read-out: %Control @1000nM): 96%
- difference in %Control from compound Ib at 1 µM (EGFR(G719S); @1000nM): 93.4%
- remaining binding at 1 µM (EGFR(G719S); @1000nM, read-out: %Control): 94%
- remaining binding at 1 µM (EGFR(G719S); read-out: %Control @1000nM): 94%
- difference in %Control versus Ib at 1 µM ([3]; @1000nM): 12%
- remaining binding at 1 µM ([3]; @1000nM, read-out: %Control): 100%
- remaining binding at 1 µM ([3]; read-out: %Control @1000nM): 100%
Compound: CCOC(=O)c1cnc(S(C)(=O)=O)nc1N1CCC[C@@H](n2nc(-c3ccc(Oc4ccccc4)cc3)c3c(N)ncnc32)C1 [Compound 8c, Ethyl (R)-4-(3-(4-Amino-3-(4-phenoxyphenyl)-1H-pyrazolo[3,4-d]pyrimidin-1-yl)piperidin-1-yl)-2-(methylsulfonyl)pyrimidine-5-carboxylate]
- %Control @1000nM (EGFR(L747-T751del,Sins)): 74%
- % difference (compound - Ib %Control) (EGFR(L747-T751del,Sins)): 71.4%
- %Control (EGFR(L747-T751del,Sins)): 74%

- difference in %Control versus compound Ib at 1 µM (EPHA1; @1000nM): 9%
- remaining binding at 1 µM (EPHA1; @1000nM, read-out: %Control): 81%
- remaining binding at 1 µM (EPHA1; read-out: %Control @1000nM): 81%
- difference in %Control from reference compound Ib at 1 µM ([1]; @1000nM): 17%
- remaining binding at 1 µM ([1]; @1000nM, read-out: %Control): 90%
- remaining binding at 1 µM ([1]; read-out: %Control @1000nM): 90%
- remaining binding at 1 µM (PDGFRB; @1000nM, read-out: %Control): 27%
- remaining binding at 1 µM (PDGFRB; read-out: %Control @1000nM): 27%
- remaining binding at 1 µM (LTK; @1000nM, read-out: %Control): 93%
- remaining binding at 1 µM (LTK; read-out: %Control @1000nM): 93%
- difference in %Control vs compound Ib at 1 µM (EGFR(G719C); @1000nM): 32.9%
- remaining binding at 1 µM (EGFR(G719C); @1000nM, read-out: %Control): 34%
- remaining binding at 1 µM (EGFR(G719C); read-out: %Control @1000nM): 34%
- difference in %Control versus compound Ib at 1 µM (ERBB2; @1000nM): 53%
- remaining binding at 1 µM (ERBB2; @1000nM, read-out: %Control): 53%
- remaining binding at 1 µM (ERBB2; read-out: %Control @1000nM): 53%
- difference in %Control versus compound Ib at 1 µM (EPHA2; @1000nM): -12%
- remaining binding at 1 µM (EPHA2; @1000nM, read-out: %Control): 88%
- remaining binding at 1 µM (EPHA2; read-out: %Control @1000nM): 88%
- difference in %Control versus reference compound Ib at 1 µM ([2]; @1000nM): 25%
- remaining binding at 1 µM ([2]; @1000nM, read-out: %Control): 38%
- remaining binding at 1 µM ([2]; read-out: %Control @1000nM): 38%
- difference in %Control versus compound Ib at 1 µM (FRK; @1000nM): 38.7%
- remaining binding at 1 µM (FRK; @1000nM, read-out: %Control): 48%
- remaining binding at 1 µM (FRK; read-out: %Control @1000nM): 48%
- difference in %Control versus compound Ib at 1 µM (INSRR; @1000nM): -2%
- remaining binding at 1 µM (INSRR; @1000nM, read-out: %Control): 94%
- remaining binding at 1 µM (INSRR; read-out: %Control @1000nM): 94%
- difference in %Control versus compound Ib at 1 µM (EGFR(S752-I759del); @1000nM): 98%
- remaining binding at 1 µM (EGFR(S752-I759del); @1000nM, read-out: %Control): 100%
- remaining binding at 1 µM (EGFR(S752-I759del); read-out: %Control @1000nM): 100%
- difference in %Control versus compound Ib at 1 µM (FES; @1000nM): 0%
- remaining binding at 1 µM (FES; @1000nM, read-out: %Control): 100%
- remaining binding at 1 µM (FES; read-out: %Control @1000nM): 100%
- difference in %Control from compound Ib at 1 µM (EGFR(G719S); @1000nM): 95.4%
- remaining binding at 1 µM (EGFR(G719S); @1000nM, read-out: %Control): 96%
- remaining binding at 1 µM (EGFR(G719S); read-out: %Control @1000nM): 96%
- difference in %Control versus Ib at 1 µM ([3]; @1000nM): 4%
- remaining binding at 1 µM ([3]; @1000nM, read-out: %Control): 92%
- remaining binding at 1 µM ([3]; read-out: %Control @1000nM): 92%
Compound: Cc1cnc(S(C)(=O)=O)nc1N1CCCC(n2nc(-c3ccc(Oc4ccccc4)cc3)c3c(N)ncnc32)C1 (centres unmarked) [Compound 8a, 1-(1-(5-Methyl-2-(methylsulfonyl)pyrimidin-4-yl)piperidin-3-yl)-3-(4-phenoxyphenyl)-1H-pyrazolo[3,4-d]pyrimidin-4-amine]
- %Control @1000nM (EGFR(L747-T751del,Sins)): 70%
- % difference (compound - Ib %Control) (EGFR(L747-T751del,Sins)): 67.4%
- %Control (EGFR(L747-T751del,Sins)): 70%
